Among the data in patent publication US10604535B2, “Compounds, compositions and methods” (Denali Therapeutics Inc., priority 2016, dated 2020) are IC50 values, retold here.

SMILES strings stand for the structures. pIC50: −log10 of the molar value.

One test deals with GST-hRIPK1 (8-327) (Homo sapiens (Human), UniProt Q13546). In words: Fluorescent Polarization Binding (FP Binding) assay.
Test [1] has as its system FADD-deficient Jurkat cells. In words: Cellular necroptosis assay (human TNFα-induced necrosis, CellTiter-Glo). Type of test: cell-based. Conditions: Homo sapiens, Jurkat, 48 h, TNFα 10 ng/mL, read-out: Cell IC50. In general terms: Cellular ATP, detected with luciferase, serves as a proxy for viable cell number.

Sequence of GST-hRIPK1 (8-327) (Q13546 8-327): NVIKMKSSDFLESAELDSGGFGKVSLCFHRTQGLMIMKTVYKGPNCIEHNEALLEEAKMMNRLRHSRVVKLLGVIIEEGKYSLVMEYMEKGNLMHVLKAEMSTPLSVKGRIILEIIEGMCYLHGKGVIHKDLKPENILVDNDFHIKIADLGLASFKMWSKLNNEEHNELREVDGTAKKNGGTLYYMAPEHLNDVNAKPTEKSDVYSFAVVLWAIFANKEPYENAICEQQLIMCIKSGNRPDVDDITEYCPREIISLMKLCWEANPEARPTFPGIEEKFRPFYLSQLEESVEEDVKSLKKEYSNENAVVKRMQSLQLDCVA

Broadly, the pIC50 is the negative decadic logarithm of the IC50, by convention in mol/L. For the molecule `C[C@H]1Oc2cccnc2N(C)C(=O)[C@H]1NC(=O)c1ncc(Cc2ccccc2)s1` [Example 124, 5-benzyl-N-((2R,3S)-2,5-dimethyl-4-oxo-2,3,4,5-tetrahydropyrido[3,2-b][1,4]oxazepin-3-yl)thiazole-2-carboxamide], the pIC50 (at GST-hRIPK1 (8-327); in test [1]) was 6.00 to 10.00 each time.
For `C=C1C[C@H](NC(=O)c2cc(Cc3ccccc3)on2)C(=O)N(C)c2ccccc21` [Example 3, (S)-5-benzyl-N-(1-methyl-5-methylene-2-oxo-2,3,4,5-tetrahydro-1H-benzo[b]azepin-3-yl)isoxazole-3-carboxamide], the pIC50 (on GST-hRIPK1 (8-327); in test [1]) was 6.00 to 10.00 throughout.
As to `CN1C(=O)[C@@H](NC(=O)c2nn(Cc3cccc(C#N)c3)cc2F)COc2cccnc21` [Example 144, (S)-1-(3-cyanobenzyl)-4-fluoro-N-(5-methyl-4-oxo-2,3,4,5-tetrahydropyrido[3,2-b][1,4]oxazepin-3-yl)-1H-pyrazole-3-carboxamide], the pIC50 (at GST-hRIPK1 (8-327); in test [1]) was 6.00 to 10.00 throughout.
Take `CN1C(=O)[C@@H](NC(=O)c2cc(Cc3ccccc3)on2)CCc2nccnc21` [Example 188, (S)-5-benzyl-N-(5-methyl-6-oxo-6,7,8,9-tetrahydro-5H-pyrazino[2,3-b]azepin-7-yl)isoxazole-3-carboxamide]: the pIC50 (at GST-hRIPK1 (8-327); in test [1]) was 6.00 to 10.00 throughout.
For the molecule `[2H]C([2H])([2H])N1C(=O)[C@@H](NC(=O)c2nnc(Cc3ccccc3)o2)[C@@H](C)Oc2cccnc21` [Example 174, 5-benzyl-N-((2R,3S)-2-methyl-5-trideuteriomethyl-4-oxo-2,3,4,5-tetrahydropyrido[3,2-b][1,4]oxazepin-3-yl)-1,3,4-oxadiazole-2-carboxamide], the pIC50 (on GST-hRIPK1 (8-327); in test [1]) was 6.00 to 10.00 each time.
`C[C@H]1Oc2cccnc2N(C)C(=O)[C@H]1NC(=O)c1ncc(Cc2ccccc2)o1` [Example 192, 5-benzyl-N-((2R,3S)-2,5-dimethyl-4-oxo-2,3,4,5-tetrahydropyrido[3,2-b][1,4]oxazepin-3-yl)oxazole-2-carboxamide]: the negative logarithm of the IC50 (pIC50) (on GST-hRIPK1 (8-327); in test [1]) was 6.00 to 10.00 in each case.
As for `CN1C(=O)[C@@H](NC(=O)c2cc(Oc3ccccc3F)ccn2)[C@H]2C[C@H]2c2cccnc21` [Example 100A, 4-(2-fluorophenoxy)-N-((1aS,2S,8bR)-4-methyl-3-oxo-1,1a,2,3,4,8b-hexahydrocyclopropa[d]pyrido[2,3-b]azepin-2-yl)picolinamide], the pIC50 (on GST-hRIPK1 (8-327); in test [1]) was 6.00 to 10.00 throughout.
Consider `CN1C(=O)[C@@H](NC(=O)c2nnc(C3(c4ccccc4)CC3)[nH]2)COc2ccccc21` [Example 35, (S)—N-(5-methyl-4-oxo-2,3,4,5-tetrahydrobenzo[b][1,4]oxazepin-3-yl)-5-(1-phenylcyclopropyl)-4H-1,2,4-triazole-3-carboxamide], for which the negative-log IC50 (pIC50) (on GST-hRIPK1 (8-327); in test [1]) was 6.00 to 10.00 in each case.
For the molecule `Cc1c(F)c(C(=O)N[C@H]2COc3ccccc3N(C)C2=O)nn1Cc1ccccc1` [Example 6, (S)-1-benzyl-4-fluoro-5-methyl-N-(5-methyl-4-oxo-2,3,4,5-tetrahydrobenzo[b][1,4]oxazepin-3-yl)-1H-pyrazole-3-carboxamide], the pIC50 (on GST-hRIPK1 (8-327); in test [1]) was 6.00 to 10.00 each time.
Consider `CN1C(=O)C(NC(=O)c2nnc(Cc3ccccc3)[nH]2)CC(F)(F)c2ccccc21` (stereo not shown) [Example 10, 5-benzyl-N-(5,5-difluoro-1-methyl-2-oxo-2,3,4,5-tetrahydro-1H-benzo[b]azepin-3-yl)-4H-1,2,4-triazole-3-carboxamide], for which the pIC50 (on GST-hRIPK1 (8-327); in test [1]) was 6.00 to 10.00 in each case.
As to `CN1C(=O)[C@@H](NC(=O)c2nn(Cc3cccc(F)c3)cc2F)COc2cccnc21` [Example 135, (S)-4-Fluoro-1-(3-fluorobenzyl)-N-(5-methyl-4-oxo-2,3,4,5-tetrahydropyrido[3,2-b][1,4]oxazepin-3-yl)-1H-pyrazole-3-carboxamide], the pIC50 (at GST-hRIPK1 (8-327); in test [1]) was 6.00 to 10.00 in each case.
As to `CN1C(=O)[C@@H](NC(=O)c2nn(Cc3ccccc3)cc2F)CCc2nn(C)cc21` [Example 109A, (S)-1-benzyl-N-(2,4-dimethyl-5-oxo-2,4,5,6,7,8-hexahydropyrazolo[4,3-b]azepin-6-yl)-4-fluoro-1H-pyrazole-3-carboxamide], the pIC50 (at GST-hRIPK1 (8-327); in test [1]) was 6.00 to 10.00 in each case.
As for `O=C(N[C@@H]1C(=O)Nc2ncccc2[C@@H]2C[C@H]12)c1nnc(Cc2ccccc2)[nH]1` [Example 110B, 5-benzyl-N-((1aS,2S,8bR)-3-oxo-1,1a,2,3,4,8b-hexahydrocyclopropa[d]pyrido[2,3-b]azepin-2-yl)-4H-1H-1,2,4-triazole-3-carboxamide], the pIC50 (at GST-hRIPK1 (8-327); in test [1]) was 6.00 to 10.00 throughout.
Consider `C[C@H]1Oc2cccnc2N(C)C(=O)[C@H]1NC(=O)c1nnc(C2(c3ccccc3)CC2)o1` [Example 138, N-((2R,3S)-2,5-dimethyl-4-oxo-2,3,4,5-tetrahydropyrido[3,2-b][1,4]oxazepin-3-yl)-5-(1-phenylcyclopropyl)-1,3,4-oxadiazole-2-carboxamide], for which the pIC50 (on GST-hRIPK1 (8-327); in test [1]) was 6.00 to 10.00 in each case.
Take `O=C(N[C@H]1COc2cccnc2NC1=O)c1nn(Cc2ccccc2)cc1F` [Example 57, (S)-1-benzyl-4-fluoro-N-(4-oxo-2,3,4,5-tetrahydropyrido[3,2-b][1,4]oxazepin-3-yl)-1H-pyrazole-3-carboxamide]: the pIC50 (at GST-hRIPK1 (8-327); in test [1]) was 6.00 to 10.00 throughout.
Turning to `CN1C(=O)[C@@H](NC(=O)c2nnc([C@@H]3CCc4ccccc43)[nH]2)COc2cccnc21` [Example 54A, 5-((R)-2,3-dihydro-1H-inden-1-yl)-N—((S)-5-methyl-4-oxo-2,3,4,5-tetrahydropyrido[3,2-b][1,4]oxazepin-3-yl)-4H-1,2,4-triazole-3-carboxamide], the pIC50 (at GST-hRIPK1 (8-327); in test [1]) was 6.00 to 10.00 throughout.
With `O=C(N[C@H]1CC2(CC2)c2cc(F)cc(F)c2NC1=O)c1nnc(Cc2ccccc2)[nH]1` [Example 103B, (S)-5-benzyl-N-(7,9-difluoro-2-oxo-1,2,3,4-tetrahydrospiro[benzo[b]azepine-5,1′-cyclopropan]-3-yl)-4H-1,2,4-triazole-3-carboxamide], the pIC50 (on GST-hRIPK1 (8-327); in test [1]) was 6.00 to 10.00 throughout.
For the molecule `CN1C(=O)[C@@H](NC(=O)c2nn(Cc3ncccn3)cc2F)COc2ccccc21` [Example 224, (S)-4-fluoro-N-(5-methyl-4-oxo-2,3,4,5-tetrahydrobenzo[b][1,4]oxazepin-3-yl)-1-(pyrimidin-2-ylmethyl)-1H-pyrazole-3-carboxamide], the pIC50 in test [1] was 6.00 to 10.00.
On the same count and under the same terms, as for `O=C(N[C@@H]1C(=O)Nc2c(F)cc(F)cc2[C@@H]2C[C@H]12)c1nnc(Cc2ccccc2)o1` [Example 89B, 5-benzyl-N-((1aS,2S,8bR)-5,7-difluoro-3-oxo-1,1a,2,3,4,8b-hexahydrobenzo[b]cyclopropa[d]azepin-2-yl)-1,3,4-oxadiazole-2-carboxamide], the figure is 6.00 to 10.00; as for `CN1C(=O)[C@@H](NC(=O)c2cc(C3(c4ccccc4)CC3)[nH]n2)COc2ccccc21` [Example 72, (S)—N-(5-methyl-4-oxo-2,3,4,5-tetrahydrobenzo[b][1,4]oxazepin-3-yl)-5-(1-phenylcyclopropyl)-1H-pyrazole-3-carboxamide], 6.00 to 10.00.
